Measured values from patent publication US20200223826A1, “Glucose-6-Phosphate Dehydrogenase (G6PD)-Modulating Agents And Methods Of Treating G6PD Deficiency” (The Board of Trustees of the Leland Stanford Junior …, priority 2017, published 2020).

What was measured:
[1] = target: T1, Canton G6PD in lymphocytes carrying the Canton variant (Homo sapiens, UniProt P11413, R459L); assay: Cycloheximide chase assay in lymphocytes; format: cell-based; settings: 1 μM; 24 hours following cycloheximide treatment
T1 construct: host or cells: lymphocytes from a G6PD-deficient subject
Procedure: Lymphocytes derived from a normal subject (HG 00866) and a G6PD-deficient subject carrying Canton variant in G6PD (HG 02367) were purchased from Coriell Institute and cultured in RPMI 1640 supplemented with 15% fetal bovine serum (FBS), 100 U/ml penicillin, and 100 μg/ml streptomycin. An SH-SY5Y neuroblastoma cell line was cultured in Dulbecco's Modification of Eagle's Medium/Ham's F-12 50/50 Mix supplemented with 10% FBS, 100 U/ml penicillin, and 100 μg/ml streptomycin. A G6PD-deficient subject-derived fibroblast cell line carrying Mediterranean variant and normal fibroblast cell line as control were purchased from Coriell Institute (GM 01152) and ThermoFisher Scientific (C0135C), respectively, and cultured in minimum essential medium supplemented with 15% FBS, 100 U/ml penicillin, and 100 μg/ml streptomycin. All the cell lines were maintained at 37° C. in a humidified incubator with an atmosphere of 5% of CO2 and 95% air.
50,000 cells (SH-SH5Y cells or fibroblast cells) or 100,000 cells (lymphocytes) were seeded in a 12-well plate and incubated overnight. The cells were subjected to serum starvation (50-75%) for 48 hours and treated with 50 μg/ml of cycloheximide at different time points (0-48 hours). The cells were treated with the compound (1 μM) for 48 hours together with cycloheximide. […]

A- (V68M, N126D) G6PD = target: T2, A- (V68M, N126D) G6PD (Homo sapiens, UniProt P11413, N126D/V68M); assay: G6PD variant enzyme activity; format: biochemical
T2 construct: His (pET-28a) (N, cleaved yes); made in house; host or cells: E. coli C43 (DE3)
Procedure: (§1) Enzyme activity was measured by monitoring NADPH production, which was coupled with diaphorase converting resazurin to fluorescent resorufin (excitation at 565 nm and emission at 590 nm); fluorescent signal was thus proportional to G6PD activity. Assays were performed at 25° C. and run for 5 minutes in buffer containing 50 mM Tris (pH 7.4), 0.5 mM EDTA, 3.3 mM MgCl2, 1 U/ml diaphorase, 0.1 mM resazurin. 10 ng of recombinant enzymes or 10 μg of cell lysates was used for the assay with 10 μM NADP^+ (Sigma) as cofactor and 100 μM G6P (Sigma) as substrate. Steady-state kinetic parameters were obtained by varying concentrations of NADP^+ (0-10 μM) with a constant concentration of G6P (100 μM) and similarly for G6P (0-100 μM) with a constant concentration of NADP^+ (10 μM) with 10 ng of recombinant enzymes. Data analysis was performed using GraphPad Prism software v.6 (GraphPad Software, La Jolla, Calif. USA). Kinetic parameters were obtained by fitting the data to the Michaelis-Menten equation.

[2] = target: T3, Mediterranean (S188F) G6PD (Homo sapiens, UniProt P11413, S188F); assay: G6PD variant enzyme activity; format: biochemical
T3 construct: His (pET-28a) (N, cleaved yes); made in house; host or cells: E. coli C43 (DE3)
Procedure: as §1

Kaiping (R463H) G6PD = target: T4, Kaiping (R463H) G6PD (Homo sapiens, UniProt P11413, R463H); assay: G6PD variant enzyme activity; format: biochemical
T4 construct: His (pET-28a) (N, cleaved yes); made in house; host or cells: E. coli C43 (DE3)
Procedure: as §1

T2 sequence (P11413 whole entry V68M/N126D): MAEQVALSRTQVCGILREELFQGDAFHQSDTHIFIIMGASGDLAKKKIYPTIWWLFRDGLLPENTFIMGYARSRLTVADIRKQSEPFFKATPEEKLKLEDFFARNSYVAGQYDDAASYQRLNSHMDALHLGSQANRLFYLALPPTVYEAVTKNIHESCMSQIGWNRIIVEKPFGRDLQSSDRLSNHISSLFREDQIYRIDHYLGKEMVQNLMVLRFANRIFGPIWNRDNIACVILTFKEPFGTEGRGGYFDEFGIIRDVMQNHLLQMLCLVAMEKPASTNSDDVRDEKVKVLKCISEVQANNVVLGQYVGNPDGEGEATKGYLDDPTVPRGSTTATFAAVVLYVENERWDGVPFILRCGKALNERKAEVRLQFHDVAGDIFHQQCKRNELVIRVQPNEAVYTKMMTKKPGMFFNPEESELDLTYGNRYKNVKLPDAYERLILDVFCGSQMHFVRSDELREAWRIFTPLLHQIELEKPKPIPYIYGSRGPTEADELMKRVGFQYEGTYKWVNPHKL
T3 sequence (P11413 whole entry S188F): as the sequence (P11413 whole entry V68M/N126D) above, with M68V, D126N, S188F counted along it
T1 sequence (P11413 2-515 R459L limits assumed): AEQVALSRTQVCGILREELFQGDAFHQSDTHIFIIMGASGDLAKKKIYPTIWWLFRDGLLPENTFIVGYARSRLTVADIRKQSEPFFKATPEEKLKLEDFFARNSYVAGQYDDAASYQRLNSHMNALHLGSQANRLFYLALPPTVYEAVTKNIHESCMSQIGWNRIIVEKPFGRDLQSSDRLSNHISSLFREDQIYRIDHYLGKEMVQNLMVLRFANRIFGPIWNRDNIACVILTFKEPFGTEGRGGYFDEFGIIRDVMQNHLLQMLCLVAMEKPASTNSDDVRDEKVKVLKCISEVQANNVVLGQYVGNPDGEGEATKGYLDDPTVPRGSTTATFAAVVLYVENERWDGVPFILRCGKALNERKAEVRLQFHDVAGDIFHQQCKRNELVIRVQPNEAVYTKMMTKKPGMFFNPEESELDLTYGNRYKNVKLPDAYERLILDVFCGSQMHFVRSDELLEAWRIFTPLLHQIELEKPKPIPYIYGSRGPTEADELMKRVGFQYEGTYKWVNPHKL
T4 sequence (P11413 whole entry R463H): as the sequence (P11413 whole entry V68M/N126D) above, with M68V, D126N, R463H counted along it

Which results are given for `SCCNCCc1c[nH]c2ccccc12` [AG1, 2-[2-(1H-indol-3-yl)ethylamino]ethanethiol]?
level of Canton protein, higher relative to vehicle treatment [1]: 48%; activation of variant (A- (V68M, N126D) G6PD): up to 2 fold; activation of variant [2]: up to 2 fold; activation of variant (Kaiping (R463H) G6PD): up to 2 fold
